These results are taken from ChEMBL document CHEMBL1159267, “Barceloneic acid A, a new farnesyl-protein transferase inhibitor from a Phoma species” (J Nat Prod, 1995).

Structures are written as SMILES. pIC50: −log10 of the molar value. Active and inactive are the calls of the source. The calls are words filed in the database; no cut-off is given here.

The target in the first assay is T1, Protein farnesyltransferase (Homo sapiens, UniProt P49354+P49356). As to the kind of experiment: Inhibition of human recombinant FPTase up to ~300 uM by Ras farnesyl-protein-transferase assay. Type of assay: protein-complex assay.
`COc1cc(O)c2c(c1)COC(=O)c1c(O)cc(C)cc1O2`: the outcome was inactive.

For the molecule `COc1cc(CO)c(Oc2cc(C)cc(OC)c2C(=O)O)c(OC)c1`, the outcome was inactive.

As for `Cc1cc(O)c(C(=O)O)c(O)c1`, the result was inactive.

Regarding `COc1cc(CO)c(Oc2cc(C)cc(O)c2C(=O)O)c(OC)c1`, the outcome was inactive.

As to `COC(=O)c1c(OC)cc(C)cc1Oc1c(CO)cc(OC)cc1OC`, the result was inactive.

Take `COc1cc(O)c(Oc2cc(C)cc(O)c2C(=O)O)c(C(=O)O)c1`: the outcome was inactive.

Another assay deals with T1, Protein farnesyltransferase. Put plainly: Inhibition of human recombinant FPTase by Ras farnesyl-protein-transferase assay. It is filed as protein-complex assay.
Take `COc1cc(O)c(Oc2cc(C)cc(O)c2C(=O)O)c(CO)c1` [BARCELONEIC ACID A]: the negative logarithm of the IC50 (pIC50) (usually −log10 of the IC50, conventionally taken in molar units) is 4.40.
